Measurements taken from patent publication US20110269777A1, “METHODS AND COMPOSITIONS FOR TREATING SCHIZOPHRENIA USING ANTIPSYCHOTIC COMBINATION THERAPY” (Medivation Neurology, Inc., priority 2007, published 2011).
Counter-ions that a name gives are not always drawn.

How the values were obtained:
[1] = tested on: NMDA-induced currents in cultured rat hippocampus neurons (NMDA receptors); experiment: NMDA-induced current blocking, patch clamp, whole cell configuration; format: cell-based; conditions: for Effect on the blocking effect of MK-801 on NMDA-induced currents: preliminary application before MK-801
Method: Experiments were carried out by the patch clamp method on freshly isolated neurons of a rat brain cortex or on cultured rat hippocampus neurons. Neurons for cultivation were obtained from the hippocampus of neonatal rats (1-2 days) by the method of trypsinization followed by pipetting. Cells suspended in culture medium were placed in 3 mL quantities into the wells of a 6-well planchette (Nunc) or into Petri dishes, in which glasses coated with poly-L-lysine had first been placed. The cell concentration as a rule was […]. The culture medium consisted of Eagle's minimum medium and a DME/F12 medium (1:1) supplemented with 10% calf serum, 2 mM glutamine, 50 μg/mL gentamycin, 15 mM glucose and 20 mM KCl, with the pH brought to between 7.0 and 7.4 using NaHCO3. Planchettes containing cultures were placed in a CO2— incubator at 37° C. and 100% humidity. Cytosine arabinoside (10-20 μL) was added on the second to third day of cultivation. After 6-7 days of cultivation 1 mg/mL glucose was added to the medium, or the medium was exchanged, depending on the following experiment. The cultured hippocampus neurons were placed in a 0.4 mL working chamber. The working solution had the following composition: 150.0 mM NaCl, 5.0 mM KCl, 2.6 mM CaCl2, 2.0 mM MgSO4×7H2O, 10 mM HEPES, and 15.0 mM Glucose, at pH 7.36.
Transmembrane currents produced by application of NMDA were registered by the patch clamp electrophysiological method in the whole cell configuration. Application of substances was done by the method of rapid superfusion. Currents were registered with the aid of borosilicate microelectrodes (resistance […]) filled with the following composition: 100.0 mM KCl, 11.0 mM EGTA, 1.0 mM CaCl2, 1.0 mM MgCl2, 10.0 mM HEPES, and 5.0 mM ATP, at pH 7.2. An EPC-9 instrument (HEKA, Germany) was used for registration. Currents were recorded on the hard disk of a Pentium-IV PC using the pulse program, which is also purchased from HEKA. The results were analyzed with the aid of the Pulsefit program (HEKA).

[2] = tested on: patients with schizophrenia, paranoid type; experiment: Double-blind placebo-controlled clinical study, efficacy assessment scales (PANSS, CGI, Calgary, NSA-16); format: in vivo, human
Method: (§1) A double-blind, placebo-controlled clinical study was conducted to evaluate the effect of a combination therapy of risperidone (3-[2-[4-(6-fluoro-1,2-benzoxazol-3-yl)piperidin-1-yl]ethyl]-2-methyl-6,7,8,9-tetrahydropyrido[2,1-b]pyrimidin-4-one) plus dimebon (2,8-dimethyl-5-(2-(6-methyl-3-pyridyl)ethyl)-2,3,4,5-tetrahydro-1H-pyrido[4,3-b]indole dihydrochloride) for treatment of chronic schizophrenia compared to risperidone treatment alone. The treatment trial was designed as randomized placebo-controlled, double-blind study of 60 patients meeting diagnostic criteria for schizophrenia, paranoid type, and episodic course (DSM IV-295.30).
(§2) The study included 60 patients with a diagnosis of continuous paranoid and episodic-progressive schizophrenia with a current condition of drug remission or development of drug remission, without regard to the syndrome determining the current mental status. […] According to DSM-IV, these patients met criteria 295.30, schizophrenia, paranoid type, […]. Patients were selected to participate in the study according to the following criteria: (1) inclusion criteria: male patients, 18 year old or older, schizophrenia, paranoid type, and episodic course in remission or partial remission and responders or partial responders to risperidone; and (2) exclusion criteria: excitement, impulsiveness or aggressive behavior (more than moderate), non-responders to antipsychotic treatment including risperidone, having mental disorders other than (or in addition to) schizophrenia, necessity of other treatment and severe acute somatic diseases or decompensated chronic somatic diseases.
(§3) In the first stage of the study (2 weeks), patients who provide an informed consent for participation in the study and who met the inclusion/exclusion criteria were switched to monotherapy with risperidone (dose adjustment of risperidone in range from 2 mg to 6 mg per day), and the clinical stability of the patients was evaluated weekly over two weeks. […] Again, clinical stability of the study participants was evaluated weekly for four weeks. In the third stage (8 weeks), after 4 weeks of monotherapy with risperidone, patients were divided into two groups. Group 1 received dimebon, (20 mg three times daily, n=23) in addition to risperidone therapy. Group 2 received a placebo (n=24) in addition to risperidone therapy. Again, clinical stability of the study participants was evaluated weekly for eight weeks. In the fourth stage (follow-up period), 6 months after completion of therapy within the framework of the protocol, the stability of the characteristics achieved in the course of the study were evaluated. In the fourth stage, clinical stability of the study participants was evaluated monthly for six months.
(§4) The study was conducted as follows. The patients were evaluated clinically and by psychopathological (descriptive) methods during every visit. The patients were evaluated according to the psychometric method at the end of the first period, at the end of the second period, after 4 weeks of the third period and at the end of the third period using the following criteria (A) Efficacy assessment scales such as (1) Positive and Negative Syndrome Scale (PANSS scale; Kay, S. R., Fiszbein, A., and Opler, L. A., Schizophrenia Bulletin 13(2):261-76 (1987)); (2) Clinical Global Impression-Severity (CGI-S) and Clinical Global Impression-Improvement (CGI-I); (3) Calgary depression rating scale (Addington, D., Addington, J., and Maticka-Tyndale E., British J. Psych. Suppl. 22:39-44 (1993)); and (4) Negative Symptoms Assessment-16 (NSA-16) (Alphs, L., Summerfelt, A., Lann, H., and Muller, R. J., Psychopharm. Bull. 25:159-163 (1989)); and (B) Safety scales such as (1) the Barnes Akathisia Rating Scale (BARS) (Barnes, T. R., British J. Psych. 154:672-676 (1989)); and (2) the Simpson-Angus Rating Scale (SARS) (Simpson, G. N. and Angus, J. W. S., Acta Psych. Scand. 212(suppl. 44):11-19 (1970)). […]

[3] = tested on: patients with schizophrenia, paranoid type
[4] = tested on: patients with schizophrenia, paranoid type; experiment: Double-blind placebo-controlled clinical study, neurocognitive assessment tests; format: in vivo, human
Method: as §1, §2, §3, §4

[5] = end (8 weeks dimebon 20 mg three times daily + risperidone)
[6] = start (before adding dimebon to risperidone)
[7] = end (8 weeks dimebon + risperidone)

## N[C@H](CCCP(=O)(O)O)C(=O)O [D-AP5, D-2-amino-5-phosphonovaleric acid, reference compound]
[1]
  Effect on the blocking effect of MK-801 on NMDA-induced currents: did not decrease

## Cc1ccc2c(c1)c1c(n2CCc2ccc(C)nc2)CCN(C)C1 [Dimebon, 2,8-dimethyl-5-[2-(6-methylpyridyl-3)ethyl]-2,3,4,5-tetrahydro-1H-pyrido[4,3-b]indole dihydrochloride]
[1]; at 10 μM, cultured rat hippocampus neurons
  Blockade of NMDA-induced currents (%): By 50-70% at 10 μM
[1]; average, read-out: IC50, blocking of currents caused by application of NMDA
  IC50: 7.7 ± 1.9 µM
[1]
  Effect on the blocking effect of MK-801 on NMDA-induced currents: capable of reducing
[2]; adjunctive dimebon on background risperidone therapy
  total PANSS score relative to placebo: significant reduction
[2]; [5]
  % improvement: 8.14 ± 49.4%
  CGI I: 2.7 ± 1.0
  CGI-S: 3.9 ± 1.2
  Calgary scale of depression: 8.1 ± 9.97
  NSA-16: 48.5 ± 22.7
  PANSS general psychopathol: 31.4 ± 11.1
  PANSS negative: 18.48 ± 7.01
  PANSS positive: 12.0 ± 5.9
  PANSS total: 61.9 ± 22.2
[2]; [6]
  CGI-S: 4.3 ± 1
  Calgary scale of depression: 11.6 ± 11.6
  NSA-16: 64.65 ± 22.8
  PANSS general psychopathol: 39.1 ± 8.1
  PANSS negative: 22.5 ± 5.15
  PANSS positive: 16.9 ± 4.6
  PANSS total: 78.5 ± 14.1
[3]; dimebon 20 mg three times daily + risperidone, 8 weeks
  safety issues: no safety issues
[3]; dimebon group vs placebo group
  BARS and SARS safety scales, difference between study groups: no differences
[4]; dimebon group, start to end of 8 weeks on risperidone background
  verbal associative memory, psychomotor speed, visual-spatial memory and number aspects of executive functioning: significant improvement
[4]; [7]
  Benton test: sum error: 6.5 ± 4.4
  Benton test: sum reconst: 6 ± 2.21
  Bourdohn test: attention concentration: 0.986 ± 0.013
  Bourdohn test: attention productivity: 497 ± 170
  Bourdohn test: attention stability: 0.009 ± 0.006
  CAT: correct answer account: 37 ± 8.2
  CAT: reaction time: 630.17 ± 195.55
  Schulte tables: sum time: 166 ± 64
  Text 1 Reconstruction 1. quantity of elements: 7 ± 2.6
  Text 2 Reconstruction 1 quantity of elements: 9 ± 3.0
  Tower of London - correct score: 3.26
  Tower of London - execution time: 234 ± 115
  Tower of London - sum total time > 60 sec: 0 ± 1.5
  Tower of London -move score: 34 ± 19
  Wechsler memory scale, subtest V: series A: 6 ± 0.9
  Wechsler memory scale, subtest V: sum A and B: 9.5 ± 2.7
  Wechsler memory scale, subtest V: sum A and B, (T-scores): 8 ± 2.3
  Wechsler memory scale, subtest VII: sum comlex: 4.5 ± 3.34
  Wechsler memory scale, subtest VII: sum simple: 17 ± 2.9
  Wechsler memory scale, subtestV: series B: 4 ± 0.9
  Wechsler test, subtest VII: Symbol coding: 6 ± 1.4
  Wisconsin CS test - conceptual level responses, T score: 44 ± 6.7
  Wisconsin CS test - nonperseverative errors, T score: 43 ± 9.6
  Wisconsin CS test - perseverative responses, T score: 45 ± 5.53
  Wisconsin CS test - total error - T score: 43 ± 8.1
  Wisconsin CS test perseverative errors, T score: 44 ± 5.6
  Wisconsin CS test: categories completed: 5 ± 1.9
  Wisconsin CS test: total correct responses: 78 ± 14
[4]; [6]
  Benton test: sum error: 8 ± 3.8
  Benton test: sum reconst: 5 ± 1.7
  Bourdohn test: attention concentration: 0.975 ± 0.03
  Bourdohn test: attention productivity: 399 ± 123
  Bourdohn test: attention stability: 0.01 ± 0.01
  CAT: correct answer account: 35 ± 8.5
  CAT: reaction time: 606.74±
  Schulte tables: sum time: 160 ± 105
  Text 1 Reconstruction 1. quantity of elements: 5 ± 2.3
  Text 2 Reconstruction 1 quantity of elements: 7 ± 2.7
  Tower of London - correct score: 2 ± 1.1
  Tower of London - execution time: 298 ± 227
  Tower of London - sum total time > 60 sec: 1.5 ± 3
  Tower of London -move score: 46 ± 25
  Wechsler memory scale, subtest V: series A: 6 ± 1
  Wechsler memory scale, subtest V: sum A and B: 10 ± 1.7
  Wechsler memory scale, subtest V: sum A and B, (T-scores): 9 ± 2.3
  Wechsler memory scale, subtest VII: sum comlex: 3 ± 2.7
  Wechsler memory scale, subtest VII: sum simple: 14 ± 4
  Wechsler memory scale, subtestV: series B: 4 ± 1.2
  Wechsler test, subtest VII: Symbol coding: 5 ± 1.8
  Wisconsin CS test - conceptual level responses, T score: 43 ± 5.9
  Wisconsin CS test - nonperseverative errors, T score: 41 ± 7.9
  Wisconsin CS test - perseverative responses, T score: 43 ± 8.38
  Wisconsin CS test - total error - T score: 43 ± 6.8
  Wisconsin CS test perseverative errors, T score: 43 ± 8.21
  Wisconsin CS test: categories completed: 4 ± 1.7
  Wisconsin CS test: total correct responses: 79 ± 16
